ChEMBL document CHEMBL1201862, “PubChem BioAssay data set” (2004)
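Following 48 hours of exposure in 96-well plates, responses at five concentrations were used to interpolate endpoints linearly. Abbreviation: GI50, concentration required for 50% inhibition of growth.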 Active and inactive are the calls of the source. Cut-off read from the data, not from the text of the source: active = GI50 up to about 1.1 µM and inactive = higher.

Tests used:
Experiment in all cases: NCI tumour cell line growth inhibition, 48 h
MCF7 = tested on: MCF7
UO-31 = tested on: UO-31
HL-60 = tested on: HL-60
SR = tested on: SR
A498 = tested on: A498
SNB-19 = tested on: SNB-19
SK-MEL-5 = tested on: SK-MEL-5
COLO 205 = tested on: COLO 205
ACHN = tested on: ACHN
HCT-15 = tested on: HCT-15
SF-268 = tested on: SF-268
HT-29 = tested on: HT-29
SN12C = tested on: SN12C
SK-MEL-28 = tested on: SK-MEL-28
Malme-3M = tested on: Malme-3M
SW-620 = tested on: SW-620
M14 = tested on: M14
SK-MEL-2 = tested on: SK-MEL-2
CAKI-1 = tested on: CAKI-1

O=C1c2c(O)cc(O)cc2C(C2OC(CO)C(O)C(O)C2O)c2cc(CO)cc(O)c21 (stereo not given)
GI50 (MCF7): > 100 µM (inactive)
GI50 (UO-31): > 100 µM (inactive)
GI50 (HL-60): > 100 µM (inactive)
GI50 (SR): > 100 µM (inactive)
GI50 (A498): > 100 µM (inactive)
GI50 (SNB-19): > 100 µM (inactive)
GI50 (SK-MEL-5): > 100 µM (inactive)
GI50 (COLO 205): > 100 µM (inactive)
GI50 (ACHN): > 100 µM (inactive)
GI50 (HCT-15): > 100 µM
GI50 (SF-268): > 100 µM (inactive)
GI50 (HT-29): > 100 µM (inactive)
GI50 (SN12C): > 100 µM (inactive)
GI50 (SK-MEL-28): > 100 µM (inactive)
GI50 (Malme-3M): 55.7 µM (inactive)
GI50 (SW-620): > 100 µM (inactive)
GI50 (M14): > 100 µM (inactive)

CC(=O)OC/C=C(/C=C/CNC1CCCCC1)OC(C)=O
GI50 (MCF7): 22 µM (inactive)
GI50 (HL-60): > 10 µM (inactive)
GI50 (SR): 10.7 µM (inactive)
GI50 (SK-MEL-2): 19.8 µM (inactive)
GI50 (A498): 19.8 µM (inactive)
GI50 (CAKI-1): 13.8 µM (inactive)
GI50 (SNB-19): 24.5 µM (inactive)
GI50 (SK-MEL-5): 17.9 µM (inactive)
GI50 (COLO 205): 13.9 µM (inactive)
GI50 (ACHN): 16.4 µM (inactive)
GI50 (HCT-15): 19.2 µM
GI50 (SF-268): 17.1 µM (inactive)
GI50 (HT-29): 18.6 µM (inactive)
GI50 (SN12C): 16.7 µM (inactive)
GI50 (SK-MEL-28): 16.8 µM (inactive)
GI50 (Malme-3M): 14.9 µM (inactive)
GI50 (SW-620): 14 µM (inactive)
GI50 (M14): 8.28 µM (inactive)

Cc1cn(CC2(CO)CCC2)c(=O)[nH]c1=O
GI50 (MCF7): > 100 µM (inactive)
GI50 (UO-31): > 100 µM (inactive)
GI50 (HL-60): > 100 µM (inactive)
GI50 (SR): > 100 µM (inactive)
GI50 (SK-MEL-2): > 100 µM (inactive)
GI50 (A498): > 100 µM (inactive)
GI50 (CAKI-1): > 100 µM (inactive)
GI50 (SK-MEL-5): > 100 µM (inactive)
GI50 (COLO 205): > 100 µM (inactive)
GI50 (ACHN): > 100 µM (inactive)
GI50 (HCT-15): > 100 µM
GI50 (SF-268): > 10 µM (inactive)
GI50 (HT-29): > 100 µM (inactive)
GI50 (SN12C): > 100 µM (inactive)
GI50 (SK-MEL-28): > 100 µM (inactive)
GI50 (Malme-3M): > 100 µM (inactive)
GI50 (SW-620): > 100 µM (inactive)

CC1(C#N)CC(C)(C)C(/C=C2/CC(C)(C)C(/C=C3/OC(=N)CC3(C)C)=N2)=N1 (stereo not given)
GI50 (MCF7): 12.3 µM (inactive)
GI50 (HL-60): 21.9 µM (inactive)
GI50 (SR): 28.5 µM (inactive)
GI50 (SK-MEL-2): 38.7 µM (inactive)
GI50 (A498): 10.5 µM (inactive)
GI50 (CAKI-1): 40 µM (inactive)
GI50 (SNB-19): 32.7 µM (inactive)
GI50 (SK-MEL-5): 16.6 µM (inactive)
GI50 (COLO 205): 16.9 µM (inactive)
GI50 (ACHN): 21.3 µM (inactive)
GI50 (HCT-15): 17.9 µM
GI50 (SF-268): 24.3 µM (inactive)
GI50 (HT-29): 27.2 µM (inactive)
GI50 (SN12C): 31.9 µM (inactive)
GI50 (SK-MEL-28): 51.9 µM (inactive)
GI50 (Malme-3M): 0.564 µM (active)
GI50 (SW-620): 34.4 µM (inactive)
GI50 (M14): 28.9 µM (inactive)

Cn1c2ccccc2c2c3c(c4c5ccccc5n(C)c4c21)C(=O)N(c1ccccc1)C3=O
GI50 (MCF7): > 100 µM (inactive)
GI50 (UO-31): > 100 µM (inactive)
GI50 (SR): > 100 µM (inactive)
GI50 (SK-MEL-2): > 100 µM (inactive)
GI50 (A498): > 100 µM (inactive)
GI50 (CAKI-1): > 100 µM (inactive)
GI50 (SNB-19): > 100 µM (inactive)
GI50 (SK-MEL-5): > 100 µM (inactive)
GI50 (COLO 205): > 100 µM (inactive)
GI50 (ACHN): > 100 µM (inactive)
GI50 (HCT-15): > 100 µM
GI50 (HT-29): > 100 µM (inactive)
GI50 (SN12C): > 100 µM (inactive)
GI50 (SK-MEL-28): > 100 µM (inactive)
GI50 (Malme-3M): > 100 µM (inactive)
GI50 (SW-620): > 100 µM (inactive)
GI50 (M14): > 100 µM (inactive)

CCc1n[nH]c(=O)n1N1C(=O)C2CCCCC2C1=O (stereo not given)
GI50 (MCF7): > 100 µM (inactive)
GI50 (UO-31): > 100 µM (inactive)
GI50 (HL-60): > 100 µM (inactive)
GI50 (SR): > 100 µM (inactive)
GI50 (SK-MEL-2): > 100 µM (inactive)
GI50 (A498): > 100 µM (inactive)
GI50 (CAKI-1): > 100 µM (inactive)
GI50 (SK-MEL-5): > 100 µM (inactive)
GI50 (COLO 205): > 100 µM (inactive)
GI50 (ACHN): > 100 µM (inactive)
GI50 (HCT-15): > 100 µM
GI50 (SF-268): > 100 µM (inactive)
GI50 (HT-29): > 100 µM (inactive)
GI50 (SN12C): > 100 µM (inactive)
GI50 (SK-MEL-28): > 100 µM (inactive)
GI50 (Malme-3M): > 100 µM (inactive)
GI50 (SW-620): > 100 µM (inactive)
GI50 (M14): > 100 µM (inactive)

CCc1n[nH]c(=O)n1-c1ccc2ccccc2c1
GI50 (MCF7): > 100 µM (inactive)
GI50 (UO-31): > 100 µM (inactive)
GI50 (SR): > 100 µM (inactive)
GI50 (SK-MEL-2): > 100 µM (inactive)
GI50 (A498): > 100 µM (inactive)
GI50 (CAKI-1): > 100 µM (inactive)
GI50 (SNB-19): > 100 µM (inactive)
GI50 (SK-MEL-5): > 100 µM (inactive)
GI50 (COLO 205): > 100 µM (inactive)
GI50 (ACHN): > 100 µM (inactive)
GI50 (HCT-15): > 100 µM
GI50 (SF-268): > 100 µM (inactive)
GI50 (HT-29): > 100 µM (inactive)
GI50 (SN12C): > 100 µM (inactive)
GI50 (SK-MEL-28): > 100 µM (inactive)
GI50 (Malme-3M): > 100 µM (inactive)
GI50 (SW-620): > 100 µM (inactive)
GI50 (M14): > 100 µM (inactive)

C=C(C)[C@@H]1CC[C@]2(C(=O)OC)CC[C@]3(C)[C@H](CC[C@@H]4[C@@]5(C)CC[C@H](O)C(C)(C)[C@@H]5CC[C@]43C)[C@@H]12 [METHYL BETULINATE]
GI50 (MCF7): 19.4 µM (inactive)
GI50 (UO-31): 22.8 µM (inactive)
GI50 (HL-60): 35.5 µM (inactive)
GI50 (SR): 32.3 µM (inactive)
GI50 (A498): 18.9 µM (inactive)
GI50 (CAKI-1): 20.8 µM (inactive)
GI50 (SNB-19): 18.7 µM (inactive)
GI50 (SK-MEL-5): 18.8 µM (inactive)
GI50 (ACHN): 16.9 µM (inactive)
GI50 (HCT-15): 20.5 µM
GI50 (SF-268): 21.4 µM (inactive)
GI50 (HT-29): 20.5 µM (inactive)
GI50 (SN12C): 16.1 µM (inactive)
GI50 (SK-MEL-28): 22.3 µM (inactive)
GI50 (Malme-3M): 22.5 µM (inactive)
GI50 (SW-620): 19.6 µM (inactive)
GI50 (M14): 35.4 µM (inactive)
